Assay results taken from patent US10750743B2, “Pyridazinone herbicides” (E.I. DU PONT DE NEMOURS AND COMPANY, priority 2015, dated 2020).

What was measured:
Assay type in all cases: in vivo
kochia (Kochia scoparia) [1] = experiment: Test A preemergence, directed soil spray, visual injury rating; settings: 0 is no effect, 100 is complete control
Procedure, shortened: (§1)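 Seeds sown in a loam soil–sand blend received a directed preemergence soil spray of test chemical in a non-phytotoxic solvent mixture with surfactant. Postemergence plants were sprayed at 2 to 10 cm, one- to two-leaf stage. After approximately 10 d in greenhouse, injury was visually rated 0 (no effect) to 100 (complete control) against untreated controls.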

[2] = system: barnyardgrass (Echinochloa crus-galli); experiment: as above; settings: 0 is no effect, 100 is complete control
Procedure, shortened: as §1

[3] = system: ragweed (common ragweed, Ambrosia elatior); experiment: as above; settings: 0 is no effect, 100 is complete control
Procedure, shortened: as §1

[4] = system: pigweed (Amaranthus retroflexus); experiment: as above; settings: 0 is no effect, 100 is complete control
Procedure, shortened: as §1

Foxtail, Green [5] = experiment: as above; settings: 0 is no effect, 100 is complete control
[6] = system: ryegrass, It. (Italian ryegrass, Lolium multiflorum); experiment: as above; settings: 0 is no effect, 100 is complete control
Procedure, shortened: as §1

[7] = system: ducksalad (Heteranthera limosa); experiment: Test B flooded paddy test, visual rating; settings: Flood, 250 g ai/ha, applied to paddy water, rated after 13 to 15 d
Procedure, shortened: (§2)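 Plants at the 2-leaf stage were flooded to 3 cm above soil, and test compounds were applied directly into the paddy water, which was held at that depth throughout. After 13 to 15 d in a greenhouse, injury was rated visually against untreated controls on a 0–100 scale (0 no effect, 100 complete control).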

[8] = system: barnyardgrass (Echinochloa crus-galli); experiment: Test B flooded paddy test, visual rating; settings: Flood, 250 g ai/ha, applied to paddy water, rated after 13 to 15 d
Procedure, shortened: as §2

[9] = system: sedge, umbrella (small-flower umbrella sedge, Cyperus difformis); experiment: Test B flooded paddy test, visual rating; settings: Flood, 250 g ai/ha, applied to paddy water, rated after 13 to 15 d
Procedure, shortened: as §2

rice (Oryza sativa) = experiment: Test B flooded paddy test, visual rating; settings: Flood, 250 g ai/ha, applied to paddy water, rated after 13 to 15 d
Procedure, shortened: as §2

[10] = system: blackgrass (Alopecurus myosuroides); experiment: Test A postemergence application, visual injury rating; settings: 0 to 100 scale, 0 no effect, 100 complete control
Procedure, shortened: as §1

kochia (Kochia scoparia) [11] = experiment: as above
Procedure, shortened: as §1

[12] = system: barnyardgrass (Echinochloa crus-galli); experiment: as above; settings: 0 to 100 scale, 0 no effect, 100 complete control
Procedure, shortened: as §1

corn (Zea mays) = experiment: as above
Procedure, shortened: as §1

[13] = system: ragweed (common ragweed, Ambrosia elatior); experiment: as above
Procedure, shortened: as §1

[14] = system: pigweed (Amaranthus retroflexus); experiment: as above
Procedure, shortened: as §1

Foxtail, Green [15] = experiment: as above
Procedure, shortened: as §1

[16] = system: galium (catchweed bedstraw, Galium aparine); experiment: as above
Procedure, shortened: as §1

[17] = system: ryegrass, It. (Italian ryegrass, Lolium multiflorum); experiment: as above
Procedure, shortened: as §1

[18] = system: wheat (Triticum aestivum); experiment: as above
Procedure, shortened: as §1

[19] = 31 g ai/ha, 0 is no effect, 100 is complete control
[20] = 125 g ai/ha, 0 to 100 scale, 0 no effect, 100 complete control

## CCC(=O)Oc1c(C)nn(C)c(=O)c1-c1c(Br)ccc2c1cnn2C [Compound 64]
Kochia (Kochia scoparia) [1]; 31 g ai/ha
  Plant response rating (0 to 100 scale), Kochia: 0
Kochia (Kochia scoparia) [1]; 125 g ai/ha
  Plant response rating (0 to 100 scale), Kochia: 0
[2]; 31 g ai/ha
  Plant response rating (0 to 100 scale), Barnyardgrass: 0
[2]; 125 g ai/ha
  Plant response rating (0 to 100 scale), Barnyardgrass: 0
[3]; 31 g ai/ha
  Plant response rating (0 to 100 scale), Ragweed: 0
[3]; 125 g ai/ha
  Plant response rating (0 to 100 scale), Ragweed: 0
[4]; 31 g ai/ha
  Plant response rating (0 to 100 scale), Pigweed: 0
[4]; 125 g ai/ha
  Plant response rating (0 to 100 scale), Pigweed: 0
Foxtail, Green [5]; 31 g ai/ha
  Plant response rating (0 to 100 scale), Foxtail, Green: 0
Foxtail, Green [5]; 125 g ai/ha
  Plant response rating (0 to 100 scale), Foxtail, Green: 0
[6]; 31 g ai/ha
  Plant response rating (0 to 100 scale), Ryegrass, It.: 0
[6]; 125 g ai/ha
  Plant response rating (0 to 100 scale), Ryegrass, It.: 0
[7]
  Ducksalad plant response rating (0 to 100 scale, 0 is no effect, 100 is complete control): 0
[8]
  Barnyardgrass plant response rating (0 to 100 scale, 0 is no effect, 100 is complete control): 0
[9]
  Sedge, Umbrella plant response rating (0 to 100 scale, 0 is no effect, 100 is complete control): 0
Rice (Oryza sativa)
  Rice plant response rating (0 to 100 scale, 0 is no effect, 100 is complete control): 0
[10]; 31 g ai/ha
  Blackgrass plant response rating: 60
[10]; 125 g ai/ha
  Blackgrass plant response rating: 0
Kochia (Kochia scoparia) [11]; [19]
  Plant response rating (0 to 100 scale), Kochia: 0
Kochia (Kochia scoparia) [11]; [20]
  Kochia plant response rating: 0
[12]; 31 g ai/ha
  Barnyardgrass plant response rating: 0
[12]; 125 g ai/ha
  Barnyardgrass plant response rating: 0
Corn (Zea mays); [19]
  Plant response rating (0 to 100 scale), Corn: 0
Corn (Zea mays); [20]
  Corn plant response rating: 0
[13]; [19]
  Plant response rating (0 to 100 scale), Ragweed: 0
[13]; [20]
  Ragweed plant response rating: 0
[14]; [19]
  Plant response rating (0 to 100 scale), Pigweed: 0
[14]; [20]
  Pigweed plant response rating: 0
Foxtail, Green [15]; [19]
  Plant response rating (0 to 100 scale), Foxtail, Green: 0
Foxtail, Green [15]; [20]
  Foxtail, Green plant response rating: 0
[16]; [19]
  Plant response rating (0 to 100 scale), Galium: 30
[16]; [20]
  Galium plant response rating: 50
[17]; [19]
  Plant response rating (0 to 100 scale), Ryegrass, It.: 0
[17]; [20]
  Ryegrass, It. plant response rating: 0
[18]; [19]
  Plant response rating (0 to 100 scale), Wheat: 0
[18]; [20]
  Wheat plant response rating: 0
